The values that follow come from PubChem BioAssay AID179 (DTP/NCI, 2004).

For the assay, the system named is CEM cells HIV-1 protection, formazan growth assay. Description: NCI AIDS Antiviral Assay. As to conditions: for IC50: measured here: growth of uninfected CEM cells. In outline:
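Human CEM cells, uninfected and HIV-1-infected, exposed to five drug concentrations; growth measured by soluble formazan assay and scored as percent protection from infection, with protecting compounds retested.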

Several values for one entry are separate records, joined by “and”; a condition that tells them apart may be missing. Equal entries are not always repeated. Activity calls are given as the source filed them.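 The calls were made as follows: active = compounds giving half or more protection of infected cells from virus-caused growth loss, again on retest; inactive = the rest.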 Where a SMILES comes first, the peptide text is derived from it.

By EC50 is commonly meant the midpoint of the concentration-response curve. As a reminder, the IC50 is the concentration at which inhibition is half-maximal. Low readings indicate inhibition by little substance, high ones a need for much substance.

`Cn1cnnc1SC(F)(F)c1nc2ccccc2o1`: the EC50 is 191 µM and the IC50 is greater than 200 µM.

On to `CN(C)c1cc(CN[C@@H](Cc2cn(C(c3ccccc3)(c3ccccc3)c3ccccc3)cn2)C(=O)O)nc(CN[C@@H](Cc2cn(C(c3ccccc3)(c3ccccc3)c3ccccc3)cn2)C(=O)O)c1`, for which the EC50 was greater than 100 µM and the IC50 was determined as 19.5 µM.

In the case of `O=c1[nH]nc(-c2ccccc2)n1/N=C/c1cccnc1`, the EC50 is greater than 200 µM and the IC50 came out at 61.7 µM.

For the molecule `CCOC(=O)C(Cl)(NC(=O)c1ccc(F)cc1)C(F)(F)F` (configuration not stated), the EC50 is greater than 200 µM and the IC50 was greater than 200 µM.

For `CCCC1(c2ccccc2)Oc2ccccc2-n2cccc2C1=O` (configuration not stated), the EC50 was greater than 200 µM and the IC50 is 40.7 µM.

Regarding `CCN(CC)/[N+]([O-])=N/OC`, the outcome was inactive.

In the case of `CSc1c(C(=O)Nc2ccc(C)cc2)c(N)n(N)c(=O)c1C#N`, the EC50 is 100 µM and the IC50 was 151 µM.

Consider `COC(=O)c1cc2/c(=N/O)c3ccccc3sc2o1`, for which the EC50 was greater than 200 µM and the IC50 was greater than 200 µM.

Turning to `COc1ccc(-c2cc(=O)c3cc(Cl)cc(Cl)c3o2)cc1OC`, the EC50 was greater than 100 µM and the IC50 is greater than 100 µM.

With `S=C1OC2CCCC[C@H]2O1` (some centres not stated), the EC50 was greater than 120 µM and the IC50 was greater than 120 µM.

Consider `O=c1[nH]ncc2c1Sc1cn[nH]c(=O)c1S2`, for which the EC50 is greater than 10.7 µM and the IC50 was greater than 10.7 µM.

In the case of `O=C1CSC(c2cccc([N+](=O)[O-])c2)N1c1ccc(-n2c(-c3ccccc3)nc3ccccc3c2=O)cc1` (configuration not stated), the EC50 is greater than 200 µM and the IC50 is greater than 200 µM.

Take `O=C(NCCCN1CCN(CCCNC(=O)Nc2cc(Cl)ccc2Cl)CC1)Nc1cc(Cl)ccc1Cl`: the EC50 is greater than 0.955 µM and the IC50 is greater than 0.955 µM.

Take `[Ni+2].c1nnc(N2CNCCNCN(c3nnc[n-]3)CNCCNC2)[n-]1`: the EC50 was greater than 100 µM and the IC50 turned out to be 97.7 µM.

Turning to `Fc1ccc(/C=C2\COCC3=C2NC(=S)NC3c2ccc(F)cc2)cc1` (configuration not stated), the result was inactive.

For the molecule `OCCN(CCO)c1nc(N(CCO)CCO)nc(N(CCO)CCO)n1`, the EC50 was greater than 200 µM and the half-inhibitory concentration (IC50) is greater than 200 µM.

With `O=C(OCC(O)CO)c1c(Cl)c(Cl)c(Cl)c(Cl)c1-c1c2cc(I)c(=O)c(I)c-2oc2c(I)c(O)c(I)cc12` (configuration not stated), the EC50 was greater than 200 µM and the IC50 turned out to be 2.63 µM.

Take `NC(=O)N/N=C1/CCCCC1c1ccccc1` (configuration not stated): the EC50 is greater than 407 µM and the IC50 was greater than 407 µM.

`N#Cc1ccc(C=NC23CC4CC(CC(C4)C2)C3)cc1`: the EC50 is greater than 67.6 µM and the IC50 is greater than 67.6 µM.

Turning to `CCOC(=O)/C(=C\c1cccc(C(F)(F)F)c1)P(=O)(OCC)OCC`, the EC50 is greater than 95.5 µM and the IC50 is 5.01 µM.

On to `NNC(=O)N/N=C1\C(=O)N(c2nccs2)C(=O)C(=O)C1c1nc2ccccc2s1` (configuration not stated), for which the EC50 is greater than 2.45 µM and the IC50 is greater than 2.45 µM.

As to `CCNc1cc2oc(=O)cc(C(F)(F)F)c2cc1C`, the EC50 was greater than 13.8 µM and the IC50 was greater than 13.8 µM.

For `Cc1cccc2oc3c(CC(=O)O)cccc3c(=O)c12`, the EC50 is greater than 200 µM and the IC50 was greater than 100 µM.

In the case of `CCOc1ccc(N2CC(=O)N3CCCN3C(=O)C2)cc1`, the EC50 was greater than 123 µM and the IC50 was greater than 123 µM.

As for `COc1ccc(C(c2ccc(C(C)C)cc(=O)c2O)c2ccc3cccnc3c2O)cc1` (configuration not stated), the outcome was inactive.

`N#CC(NNC(=O)Cc1ccccc1)c1ccc(O)cc1` (configuration not stated): the EC50 is greater than 891 µM and the half-maximal inhibitory concentration (IC50) worked out at 245 µM.

Turning to `COC(=O)Nc1nc2ccc(C(=O)c3ccc[nH]3)cc2[nH]1`, the EC50 is greater than 200 µM; the IC50 was 0.977 µM and 1.66 µM.

Take `O=C1NC(c2cccs2)N2C(=O)NC(c3cccs3)N12` (configuration not stated): the EC50 is greater than 200 µM and the IC50 was 145 µM.

Take `c1cc(-c2ccc(-c3ccsc3)s2)cs1`: the EC50 was greater than 200 µM and the concentration for half-maximal inhibition (IC50) was greater than 200 µM.

With `C[CH2][Pb]([CH2]C)([CH2]C)[O]C(=O)C(F)(F)F`, the EC50 is greater than 200 µM and the IC50 came out at 31.6 µM.

Regarding `Cc1cc(C)c(C(=O)c2no[n+]([O-])c2C(=O)c2c(C)cc(C)c(Br)c2C)c(C)c1Br`, the EC50 was greater than 1.95 µM and the IC50 was greater than 1.95 µM.

As to `Cc1ccccc1S(=O)(=O)OC1NS(=O)(=O)c2ccccc21` (configuration not stated), the EC50 was greater than 200 µM and the IC50 was greater than 200 µM.

Consider `c1ccc(-c2nnc(-c3ccccc3)c3nonc23)cc1`, for which the EC50 is greater than 95.5 µM and the IC50 is greater than 95.5 µM.

Regarding `CCCCCO/N=C\c1c2c(O)c3c(O)c(C)c4c(c3c1O)C(=O)C(C)(O/C=C\C(OC)C(C)C(OC(C)=O)C(C)C(O)C(C)C(O)C(C)/C=C\C=C(\C)C(=O)N2)O4` (configuration not stated), the EC50 was greater than 200 µM and the IC50 is 8.91 µM.

Turning to `COC(=O)C1Cc2c(n(Cc3ccccc3)c3ccccc23)C(CCC(=O)O)N1C(C)C` (configuration not stated), the outcome was inactive.

As for `CC1C2CC(CC2(C)O)C1(C)C` (configuration not stated), the EC50 was greater than 562 µM and the half-maximal inhibitory concentration (IC50) was greater than 562 µM.

For the molecule `CCCCCCCCOP(=O)(O)OP(=O)(O)OCC1OC(n2ccc(N)nc2=O)C(O)C1O` (configuration not stated), the EC50 is greater than 200 µM and the IC50 is greater than 200 µM.

With `O=C(C#Cc1ccccc1)N1c2ccccc2CC1c1c[nH]c2ccccc12` (configuration not stated), the EC50 is greater than 20 µM and the IC50 worked out at 8.32 µM.

Turning to `COC(=O)C(=O)Cc1nc2ccccc2s1`, the outcome was inactive.

Consider `COc1ccc(Br)c(N/N=C2\CCCNC2=O)c1`, for which the result was inactive.

In the case of `Cn1c(=O)n2n(c1=O)C1CCC2CC1`, the EC50 was greater than 1290 µM and the IC50 was 437 µM.

With `CC(C)CC(NC(=O)C(Cc1ccc(O)cc1)NC(=O)C(CO)NC(=O)C(CCC(=O)O)NC(=O)C1CCCN1C(=O)C(CC(C)C)NC(=O)C(C)NC(=O)CNC(=O)C(N)CCC(=O)O)C(=O)NC(Cc1c[nH]c2ccccc12)C(=O)O` (configuration not stated) (H-EGALPESYLW-OH; configuration not given here), the outcome was inactive.

Regarding `N=c1c2ncn(C3OC(CO)CC3F)c2ncn1O` (configuration not stated), the outcome was inactive.

As for `Cc1ccccc1NC(=O)C(=O)C(C#N)c1ccc(Cl)cc1` (configuration not stated), the EC50 is greater than 12 µM and the IC50 was greater than 12 µM.

With `C[N+](C)(C)CCC#CC[N+]1(C)CCCC1`, the result was inactive.

Take `CCNc1nc2c(=O)n(C)c(=O)n(C)c2s1`: the EC50 is greater than 186 µM and the IC50 is greater than 186 µM.

For the molecule `Oc1cc(OCCCc2ccc(F)cc2)cc2ccc3ccccc3c12`, the EC50 is greater than 55 µM and the IC50 stood at 31.6 µM.

In the case of `Cc1cc(N(CCC#N)CCC#N)ccc1/C=C\C(=O)Nc1ccccc1`, the EC50 is greater than 692 µM and the half-maximal inhibitory concentration (IC50) was greater than 692 µM.

On to `Nc1ccc(C2=Nc3ccccc3SC(c3ccccc3O)C2)cc1` (configuration not stated), for which the EC50 is greater than 11 µM and the IC50 is greater than 11 µM.

As for `CCOc1ccccc1N=C(NC(=O)CC)SC`, the EC50 is greater than 18.2 µM and the IC50 is greater than 18.2 µM.

Regarding `C(=C\c1c[nH]c2ccccc12)/c1ccc2ccccc2n1`, the EC50 was 0.0631 µM and the IC50 turned out to be 16.6 µM.

Turning to `CCCCCCCCCCCC(=O)OCCNC(=O)C[n+]1ccccc1`, the EC50 is greater than 200 µM and the IC50 is greater than 200 µM.

For `O=C(Nc1ccc(Br)cc1)C(=O)C(C(=O)c1ccccc1F)C1OC(=O)c2ccccc21` (configuration not stated), the EC50 was greater than 263 µM and the IC50 was 35.5 µM.

In the case of `COC(=O)/C(C#N)=C1\CCc2ccccc21`, the EC50 was greater than 1170 µM and the IC50 was greater than 1170 µM.

In the case of `CC1=CC(C)(C)SC(SSSSC2=NC(C)=CC(C)(C)S2)=N1`, the EC50 was greater than 200 µM and the IC50 was found to be 29.5 µM.

As for `BrCC[P+](c1ccccc1)(c1ccccc1)c1ccccc1`, the EC50 is greater than 200 µM and the IC50 is 3.98 µM.

As to `CCCCCCCCCCCCCCCCOCC(COC1OC(COC(C)=O)C(OC(C)=O)C(OC(C)=O)C1OC(C)=O)OCCCCCCCCCCCCCCCC` (configuration not stated), the EC50 is greater than 29.5 µM and the IC50 was greater than 29.5 µM.

As for `c1ccc2c(c1)[nH]c1c[n+]3c(c[n+]12)[nH]c1ccccc13`, the EC50 is greater than 200 µM and the IC50 was greater than 200 µM.

Turning to `Cc1ccccc1CN1C2=NCCN2C(=O)C2=C1CCN(S(=O)(=O)c1ccc(Cl)c(S(N)(=O)=O)c1)C2`, the EC50 was greater than 200 µM and the IC50 is 93.3 µM.

With `COC1OC(C)C(NC(=O)OCC(Cl)(Cl)Cl)C2OC(C)(C)OC12` (configuration not stated), the EC50 is greater than 331 µM and the IC50 is greater than 331 µM.

On to `Cc1cn(COCCCO[Si](C)(C)C(C)(C)C)c(=O)[nH]c1=O`, for which the EC50 was 112 µM and the IC50 came to 174 µM.

`CC(=O)OCC1OC(n2c(-c3ccc(C)cc3)cc(-c3ccco3)c(C#N)c2=S)C(OC(C)=O)C(OC(C)=O)C1OC(C)=O` (configuration not stated): the EC50 was greater than 200 µM and the IC50 stood at 155 µM.

On to `COc1cccc2c1OC1Sc3ccccc3-c3nn(-c4ccccc4)c-2c31` (configuration not stated), for which the EC50 was greater than 7.08 µM and the IC50 is greater than 7.08 µM.

With `CC(C)OC(=O)NCCn1cc(-c2ccccc2)nn1`, the EC50 is greater than 200 µM and the IC50 is greater than 200 µM.

On to `CC(=O)NNc1nc(C)c(C(=O)NNC(=O)C(=O)Nc2ccccc2C#N)s1`, for which the EC50 is greater than 89.1 µM and the IC50 came to 51.3 µM.

For the molecule `CCN(CC)CCNCc1cc(Cl)cc2c1OCOC2`, the EC50 was greater than 200 µM and the IC50 was greater than 200 µM.

As for `CCC1c2c(cc(=O)[nH]c2O)C(=O)N1C` (configuration not stated), the EC50 was greater than 447 µM and the IC50 was greater than 447 µM.

For `O=c1[nH]c2nccnc2c2c([N+](=O)[O-])cccc12`, the EC50 was greater than 200 µM and the IC50 was greater than 200 µM.

For `CN1C(=O)C2CCCN2C(=O)C1(C)NC(=O)OCc1ccccc1` (configuration not stated), the EC50 was greater than 269 µM and the IC50 is greater than 269 µM.

Take `CC1NCc2c1[nH]cnc2=S` (configuration not stated): the EC50 is greater than 257 µM and the IC50 was greater than 257 µM.

Take `N#Cc1c(N2CCCC2)nsc1NCc1ccccc1`: the EC50 is greater than 200 µM and the IC50 is greater than 200 µM.

Turning to `O=C1OCCCCOC(=O)c2ccccc2SSc2ccccc21`, the EC50 was greater than 200 µM and the half-inhibitory concentration (IC50) was greater than 200 µM.

In the case of `Cc1cc(N(CCC#N)S(=O)(=O)c2ccccc2)ccc1C=O`, the EC50 is greater than 110 µM and the IC50 is greater than 110 µM.
